Values after ≈ are worked out from the molar mass of the structure shown. Non-standard residues stand in square brackets, D forms with d. Residues, ends and D or L forms follow the SMILES beside them. *: point of attachment. Stearoyl = CCCCCCCCCCCCCCCCCC(=O)*; Palmitoyl = CCCCCCCCCCCCCCCC(=O)*; Myristoyl = CCCCCCCCCCCCCC(=O)*; Octanoyl = CCCCCCCC(=O)*; Orn = NCCC[C@H](N)C(=O)O; Hexanoyl = CCCCCC(=O)*; Butyryl = CCCC(=O)*
Key:
Hemolytic assay = format: cell-based, rat; settings: rat
Method: The blood cells were washed three times with PBS, where the volume of PBS was the same as that of the original blood, by gently turning the centrifuge tube upside down. After washing, ten microliters of blood cells were diluted 2,000-fold in PBS to count the cells. Finally, red blood cells were diluted to 5 × 10^8 cells/mL in PBS. Peptides were dissolved in water and filtered through a 0.2-μm filter to make a stock solution. The peptide concentration was quantitated by the UV280. The peptide solution was diluted in PBS to different concentrations (five times the tested concentrations). Twenty microliters of the peptide in PBS was mixed with 80 μL of red blood cell solution in a 96-well plate (V-bottom). The final peptide concentration was 16–256 μg/mL. In the positive control group, 20 μL of 5% Triton X-100 was added to the red blood cell solution for a final Triton X-100 concentration of 1%. For the negative control group, 20 μL of PBS solution was added. The 96-well plate was incubated at 37°C for 45 min. After centrifuging the 96-well plate at 1,500 × g for 5 min, 30 μL of the supernatant was mixed with 100 μL of deionized water in a 96-well plate (flat bottom). The concentration of heme in each well was measured by the UV405 using an Infinite M1000 pro (Tecan Austria GmbH, Austria). The hemolytic activity was calculated using the following formula. Hemolyticactivity=[(F-F0)/(Ft-F0)]×100% F is the UV405 of the peptide-treated sample F0 is the UV405 of the sample without peptide (negative control) Ft is the UV405 of the Triton-treated sample (positive control)

A. baumannii ATCC 17978 = format: cell-based, Acinetobacter baumannii; settings: ATCC 17978, 24 h
Method: Following CLSI guideline M07-A11, single bacterial colonies of A. baumannii ATCC 17978 grown on Müller–Hinton agar (MHA) plates were picked and inoculated in 4 mL of Müller–Hinton broth (MHB) at 37°C and shaken at 180 rpm for 4∼6 h. The bacterial broth was diluted in the same medium to give a cell density of 1∼2 × 10^8 CFU/mL (OD600 = 0.38∼0.4 for A. baumannii) (Supplementary Figure 1; [Dillon et al., 2020]). Then, the broth was diluted 20-fold. Peptides were dissolved in water and filtered through a 0.2-μm filter to make a stock solution. The peptide concentration was quantified by the UV280. Then, the peptide solution was serially diluted in MHB to final peptide concentrations of 1, 2, 4, 8, 16, and 32 μg/mL. One hundred microliters of serially diluted peptide and 10 μL of bacterial culture were mixed in a 96-well polystyrene plate. Each well contained approximately 5 × 10^5 CFU/mL. The positive control was a mixture of 100 μL of MHB and 10 μL of the bacterial culture. The negative control was 110 μL of MHB. The plates were incubated at 37°C without shaking. […] The bacterium-peptide mixtures (the mixture without visible growth and the mixture containing a two-fold […] peptide concentration than the mixture without growth), positive control, and negative control (3 μL each) were spotted on an MHA plate and incubated at 37°C for 24 h. The MBC was determined as the lowest peptide concentration at which no colonies formed.
The MIC and MBC of our designed peptides against A. baumannii were obtained by using the broth microdilution method in the CLSI protocol. The bacterial cell number was carefully counted, and a final cell density of 5 × 10^5 CFU/mL in each well was used in the MIC test (Supplementary Figure 1). The minimal peptide concentration at which no bacterial growth was observed was taken as the MIC value. The culture after peptide treatment was spotted on an MHA plate, and the peptide concentration that could kill all the bacteria was defined as the MBC. The MIC/MBC and hemolytic activity of these peptides are shown and compared in Figure 1.

Molecule	hemolysis at 45 min, 256 μg/mL (Hemolytic assay)	MBC A. baumannii 17978 (A. baumannii ATCC 17978)
CCCCCCCCCCCCCC(=O)N[C@@H](Cc1c[nH]c2ccccc12)C(=O)N[C@@H](CCCCN)C(=O)N[C@@H](CCCCN)C(=O)N[C@@H](CC(C)C)C(=O)N[C@@H](CCCCN)C(=O)N[C@@H](CCCCN)C(=O)N[C@@H](CC(C)C)C(=O)N[C@@H](CC(C)C)C(=O)N[C@@H](CCCCN)C(=O)N[C@@H](CCCCN)C(=O)N[C@@H](CC(C)C)C(=O)N[C@@H](CCCCN)C(=O)N[C@@H](CCCCN)C(=O)N[C@@H](CC(C)C)C(N)=O [pepD2M] (Myristoyl-WKKLKKLLKKLKKL-NH2)	93.6%	
CCCCCCCCCCCCCCCC(=O)N[C@@H](Cc1c[nH]c2ccccc12)C(=O)N[C@@H](CCCCN)C(=O)N[C@@H](CCCCN)C(=O)N[C@@H](CC(C)C)C(=O)N[C@@H](CCCCN)C(=O)N[C@@H](CCCCN)C(=O)N[C@@H](CC(C)C)C(=O)N[C@@H](CC(C)C)C(=O)N[C@@H](CCCCN)C(=O)N[C@@H](CCCCN)C(=O)N[C@@H](CC(C)C)C(=O)N[C@@H](CCCCN)C(=O)N[C@@H](CCCCN)C(=O)N[C@@H](CC(C)C)C(N)=O [pepD2P] (Palmitoyl-WKKLKKLLKKLKKL-NH2)	83.5%	
CCCCCCCCCCCCCCCCCC(=O)N[C@@H](Cc1c[nH]c2ccccc12)C(=O)N[C@@H](CCCCN)C(=O)N[C@@H](CCCCN)C(=O)N[C@@H](CC(C)C)C(=O)N[C@@H](CCCCN)C(=O)N[C@@H](CCCCN)C(=O)N[C@@H](CC(C)C)C(=O)N[C@@H](CC(C)C)C(=O)N[C@@H](CCCCN)C(=O)N[C@@H](CCCCN)C(=O)N[C@@H](CC(C)C)C(=O)N[C@@H](CCCCN)C(=O)N[C@@H](CCCCN)C(=O)N[C@@H](CC(C)C)C(N)=O [pepD2S] (Stearoyl-WKKLKKLLKKLKKL-NH2)	60.7%	
CCCC(=O)N[C@@H](Cc1c[nH]c2ccccc12)C(=O)N[C@@H](CCCCN)C(=O)N[C@@H](CCCCN)C(=O)N[C@@H](CC(C)C)C(=O)N[C@@H](CCCCN)C(=O)N[C@@H](CCCCN)C(=O)N[C@@H](CC(C)C)C(=O)N[C@@H](CC(C)C)C(=O)N[C@@H](CCCCN)C(=O)N[C@@H](CCCCN)C(=O)N[C@@H](CC(C)C)C(N)=O [pepD3B] (Butyryl-WKKLKKLLKKL-NH2)	7.89%	8 mg/L (≈ 5.35 µM)
CCCCCC(=O)N[C@@H](Cc1c[nH]c2ccccc12)C(=O)N[C@@H](CCCCN)C(=O)N[C@@H](CCCCN)C(=O)N[C@@H](CC(C)C)C(=O)N[C@@H](CCCCN)C(=O)N[C@@H](CCCCN)C(=O)N[C@@H](CC(C)C)C(=O)N[C@@H](CC(C)C)C(=O)N[C@@H](CCCCN)C(=O)N[C@@H](CCCCN)C(=O)N[C@@H](CC(C)C)C(N)=O [pepD3H] (Hexanoyl-WKKLKKLLKKL-NH2)	54.1%	8 mg/L (≈ 5.25 µM)
CCCCCCCC(=O)N[C@@H](Cc1c[nH]c2ccccc12)C(=O)N[C@@H](CCCCN)C(=O)N[C@@H](CCCCN)C(=O)N[C@@H](CC(C)C)C(=O)N[C@@H](CCCCN)C(=O)N[C@@H](CCCCN)C(=O)N[C@@H](CC(C)C)C(=O)N[C@@H](CC(C)C)C(=O)N[C@@H](CCCCN)C(=O)N[C@@H](CCCCN)C(=O)N[C@@H](CC(C)C)C(N)=O [pepD3O] (Octanoyl-WKKLKKLLKKL-NH2)	86%	8 mg/L (≈ 5.16 µM)
CC(=O)N[C@@H](Cc1c[nH]c2ccccc12)C(=O)N[C@@H](CCCN)C(=O)N[C@@H](CCCN)C(=O)N[C@@H](CC(C)C)C(=O)N[C@@H](CCCN)C(=O)N[C@@H](CCCN)C(=O)N[C@@H](CC(C)C)C(=O)N[C@@H](CC(C)C)C(=O)N[C@@H](CCCN)C(=O)N[C@@H](CCCN)C(=O)N[C@@H](CC(C)C)C(=O)N[C@@H](CCCN)C(=O)N[C@@H](CCCN)C(=O)N[C@@H](CC(C)C)C(N)=O [pepO2, Ac-WOOLOOLLOOLOOL-NH2] (Ac-W[Orn][Orn]L[Orn][Orn]LL[Orn][Orn]L[Orn][Orn]L-NH2)	0.23%	8 mg/L (≈ 4.64 µM)
Ac-WKKVKKVVKKVKKV-NH2 [pepV2]	0.31%	32 mg/L
Ac-WRRLRRLLRRLRRL-NH2 [pepR2]	106%	8 mg/L

From article PMC8250858, “A Systematic Study of the Stability, Safety, and Efficacy of the de novo Designed Antimicrobial Peptide PepD2 and Its Modified Derivatives Against Acinetobacter baumannii” (Frontiers in Microbiology, 2021)
